Experimental data from PMC8111002 (Communications Biology, 2021).
Square brackets hold non-standard residues; d marks the D form. Ends that are not written are not given here. Peptide text beside a SMILES is read from it. βAla = NCCC(=O)O

Experiments:
Stx1a A-subunit = Stx1a A-subunit (Enterobacteria phage H19B, UniProt P08026); experiment: biochemical; type: binding, Escherichia coli
Stx1a = Stx1a (UniProt P08026+P69178); experiment: cell-based; design: species or system Escherichia coli
Stx2a A-subunit = Stx2a A-subunit (Escherichia phage 933W, UniProt P09385); experiment: biochemical; type: binding, Escherichia coli
Stx2a = Stx2a (Escherichia phage 933W, UniProt P09385+P09386); experiment: cell-based; design: species or system Escherichia coli
A-subunit = type: binding, Escherichia coli
[1] = biological target: B-subunits of Stx1a and Stx2a; details: cited from earlier work
EHEC = details: mouse, in vivo; cited from earlier work

`CSCC[C@H](NC(=O)[C@H](C)NC(=O)[C@@H](N)CCSC)C(=O)N[C@@H](CCSC)C(=O)NCCC(=O)N[C@@H](CCCNC(=N)N)C(=O)N[C@@H](CCCNC(=N)N)C(=O)N[C@@H](CCCNC(=N)N)C(=O)N[C@@H](CCCNC(=N)N)C(=O)N[C@@H](C)C(N)=O` [MMβA-mono] (H-MAMM[βAla]RRRRA-NH2) gave a Kd (Stx1a A-subunit) of 0.032 µM, an IC50 (Stx1a) of 59.2 µM and a Kd (Stx2a A-subunit) of 0.05 µM. It also gave an IC50 (Stx2a) of 9.6 µM.

For ARRRRA, the “inhibition of the binding between MMβA-mono and the A-subunit” value (from here on “inhibition”) (A-subunit) was “efficiently inhibited”.

For Arg-Arg-Arg-Arg (RRRR), the “inhibition” value (A-subunit) was “efficiently inhibited”.

In the case of Arg-Arg-Arg-Arg-Ala (RRRRA), the “inhibition” value (A-subunit) is reported as “efficiently inhibited”.

In the case of “Galα[1-4]-Galβ[1-4]-Glcβ- [free trisaccharide]”, the Kd [1] is given as “mM order”.

For MMARRRR [MMA-tet], the “inhibitory effects against the lethality in EHEC infected mice” value (EHEC) is given as “potent inhibitory effects”.
